Source: patent publication US5637591A, “Antimicrobial and anticollagenase activity of phenazine-5, 10-dioxide and derivatives” (Fuji ImmunoPharmaceuticals Corp., priority 1995, dated 1997)
≈ marks a conversion by molar mass, not a printed value. Where two headings read alike, the source gives them in different places.

What was measured:
[1] = system: P. gingivalis strain 2561; assay: minimum inhibitory concentration by addition to plating medium; type: cell-based; conditions: for MIC: Porphyromonas gingivalis, 2561, 168 h
Experimental: (§1) Solutions of the agents were tested for activity against Escherichia coli strain DH5α by a zone inhibition method, and against P. gingivalis strain 2561 by addition to plating medium to determine minimum inhibitory concentrations (M/C). For the zone inhibition study, a suspension of E. coli was spread on the surface of an agar plate. A 3 mm diameter paper disk was placed on the seeded agar surface, and 10 μl of solution of each compound formulated at 1 mg/ml was added to the disk. Plates were incubated overnight at 37° C. The radius of the zone of inhibition was measured from the center of the disk to the edge of the E. coli bacterial lawn. For determination of MIC, drug solutions were mixed with plating medium to produce a range of final drug concentrations. Media with drug were plated in the wells of 24-well plates. A drop of bacterial suspension containing 2-5×10^2 CFU P. gingivalis was placed on each well. Plates were incubated 1 week in an anaerobic chamber at 37° C.

Clostridium perfringens = assay: microbe, parasite or virus in culture; type: cell-based; conditions: read-out: IC50 Clostridium perfringens
[2] = system: Peptostreptococcus anaerobius; assay: anaerobic liquid culture growth inhibition, OD 650 nm; type: cell-based; conditions: read-out: IC50 Peptostreptococcus anaerobius
[3] = system: Escherichia coli strain DH5α; assay: zone inhibition method on agar plate; type: cell-based; conditions: 10 μl of 1 mg/ml on 3 mm paper disk, overnight 37° C., radius from center of disk; for zone of inhibition at 1000 µg/mL: Escherichia coli, read-out: E. coli Clear Zone
Experimental: as §1

[4] = system: Porphyromonas gingivalis RB-22D-1; assay: anaerobic liquid culture growth inhibition, OD 650 nm; type: cell-based
Bacteroides fragilis = assay: as above; type: cell-based; conditions: read-out: IC50 Bacteroides fragilis
Fusobacterium nucleatum = assay: as above; type: cell-based; conditions: read-out: IC50 Fusobacterium nucleatum
Bacteroides levii = assay: as above; type: cell-based; conditions: Porphyromonas levii, read-out: IC50 Bacteroides levii
[5] = system: Fusobacterium necrophorum; assay: as above; type: cell-based; conditions: read-out: IC50 Fusobacterium necrophorum
[6] = system: Porphyromonas gingivalis 2561; assay: as above; type: cell-based
A. act and/or P. gin = conditions: background summary; cited from earlier work
[7] = system: anaerobic bacterial species; assay: anaerobic liquid culture growth inhibition, whole panel; type: cell-based; conditions: all species of Table 4; read-out: susceptibilities (IC50) of the various anaerobic species
Experimental: The concentrations of the various preferred substituted phenazine-5,10-dioxide compounds necessary to inhibit growth by 50% (IC50 values) were determined for a variety of anaerobic bacterial species. Compounds were individually diluted into liquid growth media, which along with suspensions of bacterial monocultures were added to the wells of 96-well plates. Cultures were incubated anaerobically overnight, and growth was assessed by measuring optical density at 650 nm. IC50 values were determined as the compound concentration producing a turbidity reading equal to 50% of the maximum. Again, results with Tetracycline are shown for comparison.

P. gingivalis = assay: bone loss after oral colonization with P. gingivalis in mice, systemic administration; type: in vivo, BALB/c mice
Experimental: An animal model for testing the antimicrobial activity of the invention against P. gingivalis was conducted by inducing oral colonization of the microbe in BALB/c mice. Drug (2-methylphenazine-5,10-dioxide or Tetracycline) or control (2.5% cyclodextran) was administered intraperitoneally once each day for 25 days (2-methylphenazine-5,10-dioxide) or 40 days (Tetracycline). On the day following the last dose administration, the rear molars of the mice were swabbed and the swabs incubated in a growth medium to assess the presence of P. gingivalis. Mice were then sacrificed and jaw bones harvested for evaluation of bone loss.

[8] = system: purified collagenase from P. gingivalis; assay: anti-collagenase activity, 3H-collagen hydrolysis; type: biochemical; conditions: for % Inhibition of collagenase: 24 h at 25° C.
Experimental: Collagenase activity in the presence of the preferred compound 2-aminophenazine-5,10-dioxide and in the presence of Tetracycline were measured by incubating ^3 H-collagen with purified collagenase from P. gingivalis using increasing drag concentrations. After 24 h at 25° C., unhydrolyzed collagen fibers were removed from the mixture by centrifugation, and the specific activity of ^3 H in the supernatant quantified as a measure of hydrolyzed collagen. Percent inhibition was determined by subtracting the value in the presence of test compound from the control value, then dividing this quantity by the control value [(control-compound)/control×100].

[9] = RB22D1, anaerobic overnight, OD 650 nm, read-out: IC50 Porphyromonas gingivalis RB-22D-1
[10] = Porphyromonas gingivalis, 2561, anaerobic overnight, OD 650 nm, read-out: IC50 Porphyromonas gingivalis 2561
[11] = MIC on a molar basis, read-out: P. gingivalis MIC
[12] = complete inhibition of growth, 1 week anaerobic, 37° C., read-out: P. gingivalis MIC

Row | SMILES | IC50 (Clostridium perfringens) | IC50 ([2]; anaerobic overnight, OD 650 nm) | IC50 [4, 9] | IC50 (Bacteroides fragilis; anaerobic overnight, OD 650 nm) | IC50 (Fusobacterium nucleatum; anaerobic overnight, OD 650 nm) | IC50 (Bacteroides levii; anaerobic overnight, OD 650 nm) | IC50 ([5]; anaerobic overnight, OD 650 nm) | IC50 [6, 10] | MIC [1, 11] | MIC [1, 12] | zone of inhibition at 1000 µg/mL [3] | Activity against A. act and/or P. gin (A. act and/or P. gin) | other results
1 | [O-][n+]1c2ccccc2[n+]([O-])c2cc(O)c(O)cc21 [2,3-dihydroxyphenazine-5,10-dioxide] | > 10 µg/mL | > 10 µg/mL | 2 µg/mL (≈ 8.19 µM) | > 10 µg/mL | > 10 µg/mL | > 10 µg/mL | > 10 µg/mL | 5 µg/mL (≈ 20.5 µM) | – | – | – | – | antimicrobial activity against P. gingivalis [1]: inactive; P. gingivalis MIC (μM) ([1]; MIC on a molar basis): inactive; P. gingivalis MIC ([1]; complete inhibition of growth, 1 week anaerobic, 37° C.): inactive; E. coli Clear Zone [3]: inactive
2 | COc1ccc2c(c1)[n+]([O-])c1ccc(N)cc1[n+]2[O-] [2-amino-7-methoxyphenazine-5,10-dioxide, 2-amino,7-methoxyphenazine-5,10-dioxide] | – | – | 0.08 µg/mL (≈ 0.311 µM) | – | – | – | – | 0.015 µg/mL (≈ 0.0583 µM) | – | – | – | – | –
3 | [O-][n+]1c2ccccc2[n+]([O-])c2c3cccnc3c(O)cc21 [2-hydroxy-3,4-iminopropylphenazine-5,10-dioxide] | 0.1 µg/mL (≈ 0.358 µM) | 0.1 µg/mL (≈ 0.358 µM) | 0.18 µg/mL (≈ 0.645 µM) | 1 µg/mL (≈ 3.58 µM) | > 10 µg/mL | 2 µg/mL (≈ 7.16 µM) | 6.5 µg/mL (≈ 23.3 µM) | 0.08 µg/mL (≈ 0.286 µM) | 0.112 µM | 0.031 µg/mL | 17 mm | – | –
4 | [O-][n+]1c2ccccc2[n+]([O-])c2cc(O)ccc21 [2-hydroxyphenazine-5,10-dioxide] | 1 µg/mL (≈ 4.38 µM) | 0.45 µg/mL (≈ 1.97 µM) | 0.22 µg/mL (≈ 0.964 µM) | 5 µg/mL (≈ 21.9 µM) | > 10 µg/mL | 0.2 µg/mL (≈ 0.876 µM) | 0.45 µg/mL (≈ 1.97 µM) | 0.62 µg/mL (≈ 2.72 µM) | 0.07 µM | 0.016 µg/mL | 15 mm | – | concentration range of activity against P. gingivalis ([1]; molar basis): nanomolar concentration range
5 | CC1(C)S[C@@H]2[C@H](NC(=O)[C@H](N)c3ccc(O)cc3)C(=O)N2[C@H]1C(=O)O [Amoxicillin] | – | – | – | – | – | – | – | – | – | – | – | ineffective | –
6 | Cc1ncc([N+](=O)[O-])n1CCO [Metronidazole] | – | – | – | – | – | – | – | – | – | – | – | ineffective | –
7 | CC1(C)S[C@@H]2[C@H](NC(=O)Cc3ccccc3)C(=O)N2[C@H]1C(=O)O [Penicillin G] | – | – | – | – | – | – | – | – | – | – | – | ineffective | –
8 | CN(C)[C@@H]1C(O)=C(C(N)=O)C(=O)[C@@]2(O)C(O)=C3C(=O)c4c(O)cccc4[C@@](C)(O)[C@H]3C[C@@H]12 [Tetracycline, reference compound] | 0.06 µg/mL (≈ 0.135 µM) | – | – | – | – | – | – | – | – | – | 10 mm | – | MIC ([1]; read-out: P. gingivalis MIC): 0.5 µg/mL; MIC ([1]; read-out: P. gingivalis MIC (μM)): 1.13 µM; IC50 [7]: ≤ 0.1 µg/mL; IC50 [2]: 0.03 µg/mL (≈ 0.0675 µM); Bone Loss (BLU) Average ± SD (P. gingivalis; Bacterial Infection, 5 mg/kg intraperitoneally once each day × 40 d, 0.33 mm = 1 BLU): 7.21 ± 0.73 BLU; effect of treatment on bone loss (P. gingivalis; infected mice, IP daily, 25 d (2-methylphenazine-5,10-dioxide) or 40 d (Tetracycline)): did not effect the bone loss; IC50 ([4]; RB22D1, read-out: IC50 Porphyromonas gingivalis RB-22D-1): 0.06 µg/mL (≈ 0.135 µM); IC50 (Bacteroides fragilis): 0.1 µg/mL (≈ 0.225 µM); IC50 (Fusobacterium nucleatum): 0.16 µg/mL (≈ 0.36 µM); IC50 (Bacteroides levii): 0.1 µg/mL (≈ 0.225 µM); IC50 [5]: 0.03 µg/mL (≈ 0.0675 µM); IC50 ([6]; Porphyromonas gingivalis, 2561, read-out: IC50 Porphyromonas gingivalis 2561): 0.02 µg/mL (≈ 0.045 µM); % Inhibition of collagenase ([8]; 1 μg/ml): 7.6%; % Inhibition of collagenase ([8]; 10 μg/ml): 31%; % Inhibition of collagenase ([8]; 100 μg/ml): 68%; anti-collagenase IC50 ([8]; estimated from Table 5): about 56 μg/ml
9 | [O-][n+]1c2ccccc2[n+]([O-])c2ccccc21 [phenazine-5,10-dioxide] | 1 µg/mL (≈ 4.71 µM) | 0.2 µg/mL (≈ 0.942 µM) | – | 3 µg/mL (≈ 14.1 µM) | 3.5 µg/mL (≈ 16.5 µM) | 2.5 µg/mL (≈ 11.8 µM) | 0.45 µg/mL (≈ 2.12 µM) | – | 0.296 µM | 0.063 µg/mL | 19 mm | – | –
